Experimental data: US12595504B2, “Methods for screening compounds for bactericidal activity and for determining the sensitivity of bacterial samples” (priority 2020, dated 2026)
Values after ≈ are worked out from the molar mass of the structure shown. Where two headings read alike, the source gives them in different places.

Columns and labels:
Escherichia coli MG1655 = test: Antibiotic MIC determination (serial twofold dilutions, OD600 during 17 hours at 37° C.); assay type: cell-based; settings: 37° C.; for MIC: Escherichia coli
Protocol: The Minimal Inhibitory Concentration (MIC) of the antibiotics was determined under the same culture conditions as the tests using the ATP assay kit. […] An exponentially growing culture (OD600=0.3) was added to each well (60 μl/well) of a sterile microtiter plate containing the test concentration of antibiotic (40 μl/well). The volume was completed to 120 μl with medium and OD600 nm measurements were performed using a microtiter plate reader (Infinite 200 PRO, TECAN) during 17 hours at 37° C.
In all the following experiments, the MIC values were measured for each antibiotic with parameters such as temperature, OD600 and equipment identical to those used for the bioluminescence assay.

[1] = tested on: E. coli MG1655 reporter cells; assay type: cell-based, Escherichia coli
Protocol: The classical luciferase was from Molecular Probes (ATP Determination Kit (A22066)). The thermostable luciferase was from “CheckLite AT100” (kikkoman). The Luciferin-luciferase reagents were prepared following manufacturer instructions. Bacteria from exponentially growing cultures (OD600=0.3) were added to each well (60 μl/well) of a black 96-microtiter plate (Greiner Bio-one, 655076) and 20 μl of the luciferin-luciferase reagent solution was added. The microtiter plate was incubated 5 min at 37° C. for reaction with the luciferase to eliminate traces of extracellular ATP. Then 40 μl of antibiotic solution (3 times concentrated) prepared in the culture medium were added. Bioluminescence of each well was monitored for 4 hours under shaking (218 rpm) and at 28 or 37° C., depending on the experiments (see legends of Figures). The reagent stability in presence or absence of antibiotics was checked in control experiments without bacteria but with 4 pmoles of ATP. Tests were also performed in 384-microtiter plates (Greiner Bio-one, 784076).
Aminoglycosides are bactericidal antibiotics causing translational miscoding with lethal consequences for the cell. Leakage of small molecules following an aminoglycoside shock was previously identified by different methods including radiolabelling. Therefore, the inventors investigated the response of live cells to aminoglycoside stress.

[2] = MG1655, read-out: MIC in MOPS glucose 0.4%, MOPS minimal medium glucose 0.4%
[3] = MG1655, LB medium, OD600 0.15 final, read-out: MIC in LB
[4] = MOPS minimal medium (glucose 0.4%), FIG. 11
[5] = antibiotic at 25 μg/mL, LB, 37° C.
[6] = antibiotic at 50 μg/mL, LB, 37° C.
[7] = antibiotic at 100 μg/mL, LB, 37° C.
[8] = antibiotic at 200 μg/mL, LB, 37° C.
[9] = antibiotic at 12.5 μg/mL, LB, 37° C.

| Molecule | MIC (Escherichia coli MG1655; [2]) | MIC (Escherichia coli MG1655; [3]) | Lag time before ATP [1, 5] | Lag time before ATP [1, 6] | Lag time before ATP [1, 7] | Lag time before ATP [1, 8] | Lag time before ATP [1, 9] | further results |
| --- | --- | --- | --- | --- | --- | --- | --- | --- |
| CN[C@@H]1[C@@H](O[C@H]2O[C@H](CO)[C@@H](N)[C@H](O)[C@H]2O)OC2C[C@@H](N)[C@@H](O[C@H]3[C@H](O)[C@@H](O)[C@H](N)C[C@@H]3N)OC2[C@@H]1O (stereo partly drawn) [Apramycin] | 2.5 µg/mL (≈ 4.63 µM) | 20.2 µg/mL (≈ 37.4 µM) |  |  |  |  |  | Shape of ATP release trace ([1]; LB medium, 37° C., FIG. 8): bi-phasic; Shape of ATP release trace [1, 4]: monophasic; Lag time before ATP ([1]; antibiotic at 6.75 μg/mL, LB, 37° C.): 60.9 min; Lag time before ATP ([1]; antibiotic at 13.5 μg/mL, LB, 37° C.): 30.0 min; Lag time before ATP ([1]; antibiotic at 27 μg/mL, LB, 37° C.): 13.3 min; Lag time before ATP ([1]; antibiotic at 54 μg/mL, LB, 37° C.): 10.9 min; Lag before ATP release (shortest, incompressible value) ([1]; highest concentrations tested, LB, 37° C.): ~10.9 min |
| CC(C)(O/N=C(\C(=O)N[C@@H]1C(=O)N2C(C(=O)[O-])=C(C[n+]3ccccc3)CS[C@H]12)c1csc(N)n1)C(=O)O [Ceftazidime] | 100 µg/mL (≈ 183 µM) | 100 µg/mL (≈ 183 µM) | 40.3 min | 8.6 min | 8.3 min | 8.0 min |  | Lag time before ATP ([1]; antibiotic at 400 μg/mL, LB, 37° C.): 7.8 min |
| CN(C)[C@@H]1C(O)=C(C(N)=O)C(=O)[C@@]2(O)C(O)=C3C(=O)c4c(O)cccc4[C@@](C)(O)[C@H]3C[C@@H]12 [Tetracycline] | 12.5 µg/mL (≈ 28.1 µM) | 12.5 µg/mL (≈ 28.1 µM) |  |  |  |  |  | High dose at which ATP release was observed ([1]; LB, FIG. 9): 4 times the MIC |
| CO[C@H]1/C=C/O[C@@]2(C)Oc3c(C)c(O)c4c(O)c(c(/C=N/N5CCN(C)CC5)c(O)c4c3C2=O)NC(=O)/C(C)=C\C=C\[C@H](C)[C@H](O)[C@@H](C)[C@@H](O)[C@@H](C)[C@H](OC(C)=O)[C@@H]1C [Rifampicin] | 25 µg/mL (≈ 30.4 µM) | 50 µg/mL (≈ 60.8 µM) | 38 min | 34.8 min | 34.6 min |  | 57.1 min | Lag of ATP leakage ([1]; LB, FIG. 9): about 30 minutes; Lag time before ATP ([1]; antibiotic at 3.125 μg/mL, LB, 37° C.): 67 min; Lag time before ATP ([1]; antibiotic at 6.25 μg/mL, LB, 37° C.): 63.8 min |
| C[C@@H]1O[C@@H]1P(=O)(O)O [Fosfomycin] | 100 µg/mL (≈ 724 µM) | 50 µg/mL (≈ 362 µM) | 26.2 min | 21.8 min | 20.2 min | 18.6 min | 28.6 min |  |
| Polymyxin B |  |  |  |  |  |  |  | MIC in LB (Escherichia coli MG1655; LB medium, OD600 0.15 final): 8 µg/mL; MIC in MOPS glucose 0.4% (Escherichia coli MG1655; MOPS minimal medium glucose 0.4%): 4 µg/mL; Shape of ATP release trace ([1]; LB medium, 37° C., FIG. 8): bi-phasic; Dose at which the amplitude of the initial burst was maximal ([1]; LB, FIG. 8): 4 µg/mL; Shape of ATP release trace [1, 4]: monophasic; Intensity of ATP release signal in minimal medium compared to rich medium (factor of decrease) ([1]; MOPS minimal medium vs LB): 3; Lag before ATP release ([1]; above the concentration of 4 μg/ml, LB): < 2.4 min; Lag time before ATP ([1]; antibiotic at 2 μg/mL, LB, 37° C.): 5.3 min; Lag time before ATP ([1]; antibiotic at 4 μg/mL, LB, 37° C.): 2.4 min; Lag time before ATP ([1]; antibiotic at 8 μg/mL, LB, 37° C.): < 2.4 min; Lag time before ATP ([1]; antibiotic at 16 μg/mL, LB, 37° C.): < 2.4 min; Lag time before ATP ([1]; antibiotic at 32 μg/mL, LB, 37° C.): < 2.4 min |
| CO[C@@]1(NC(=O)Cc2cccs2)C(=O)N2C(C(=O)O)=C(COC(N)=O)CS[C@@H]21 [Cefoxitin] | 100 µg/mL (≈ 234 µM) | 50 µg/mL (≈ 117 µM) | 6.1 min | 4.9 min | 4.9 min | 4.9 min | 10.9 min |  |
